Assay results reported in patent US20240109843A1, “BENZALDEHYDE COMPOUNDS WITH DIRECT POLYMER DESTABILIZING EFFECTS TO TREAT SICKLE CELL DISEASE” (VIRGINIA COMMONWEALTH UNIVERSITY, priority 2018, published 2024).
“And” between values parts separate entries of the source, which are not always exact repeats. Equal entries are not always repeated.

Assays:
[1] = molecular target: T1, Hb (Homo sapiens, UniProt P69905); assay: Hb modification (drug-adduct formation) in SS blood suspensions by cation-exchange HPLC; format: binding; design: Blood suspensions from subjects with homozygous SCD; from tissue; host or cells: blood suspensions (20% hematocrit) from donors with homozygous SCD; lysates of the treated red cells; details: 2 mM, 4 biological replicates
Protocol: All compounds (Comp 1-13) and comparator molecules (VZHE-039, PP-14, INN-310, and Voxelotor) were evaluated following established procedures. Blood samples from individual donors with homozygous SCD (obtained with informed consent) were diluted using Hemox buffer solution with the addition of glucose (10 mM) and BSA (0.2%) to adjust hematocrit of the blood suspensions to 20%, which standardizes the procedure to normalize the ratio of RBCs to drug, for assay consistency and reproducibility. Briefly, blood suspensions were incubated under room air in the presence of various concentrations of test compounds (0-2 mM) at 37° C. for 1 hour in 96-well round bottom plates. Subsequently, the suspensions were incubated with a hypoxic gas mixture (2.5% Oxygen gas/balance Nitrogen gas) at 37° C. for up to 2 hours prior to fixation with 2% glutaraldehyde solution without exposure to air. The fixated blood aliquots were evaluated by microscopic morphological analysis (image analysis on Image J software) to identify the proportion of sickled and non-sickled RBCs, and sickle inhibition calculated based on the % change from negative control (DMSO).
The residual samples were then washed in phosphate-buffered saline, and hemolyzed in hypotonic lysis buffer, with or without sodium borohydride (50 mM). Aliquots obtained from the lysates with or without sodium borohydride (to reduce Schiff base adducts) were also assessed for level of Hb modification (drug-adduct formation) by cation-exchange HPLC (Hitachi D-7000 Series, Hitachi Instruments, Inc., San Jose, CA) with a weak cation-exchange column (Poly CAT A: 50 mm×4.6 mm, Poly LC, Inc., Columbia, MD). Hemoglobin isotype peaks are eluted with a linear gradient of phase B from 0% to 80% at A410 nm (Mobile Phase A: 40 mM Bis-Tris, 2 mM KCN, pH 6.9; Phase B: 40 mM Bis-Tris, 2 mM KCN, 0.2 M sodium chloride, pH 6.55). Clarified lysate from normal human adult […] (Hb A), as well as commercial standards containing approximately equal amounts of Hb F, A, S and C (Helena Laboratories, Beaumont, TX), were utilized as reference isotypes. Reduced samples were used to assess “fixed adduct” formation (dependent on RBC membrane permeability), whereas non-reduced samples assessed drug-adduct formation independent of drug permeability.
Target sequence in this assay (P69905 2-142): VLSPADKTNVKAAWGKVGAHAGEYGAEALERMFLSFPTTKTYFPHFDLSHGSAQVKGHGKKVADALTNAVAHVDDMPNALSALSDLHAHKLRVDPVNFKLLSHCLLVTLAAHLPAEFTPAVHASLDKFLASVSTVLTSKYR
Target sequence in this assay (P68871 with tags, fused parts or gaps E7V partner): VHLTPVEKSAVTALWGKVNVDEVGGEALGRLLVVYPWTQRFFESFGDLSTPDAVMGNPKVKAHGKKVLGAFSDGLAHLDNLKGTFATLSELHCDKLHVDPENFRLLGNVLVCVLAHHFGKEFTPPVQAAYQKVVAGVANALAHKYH

[2] = molecular target: T1, Hb; assay: Drug partitioning studies, fixed and unfixed Hb adducts in non-sickling AA blood; format: cell-based; design: Hemoglobin modification, studies using non-sickling AA blood; from tissue; host or cells: non-sickling (AA) human blood, red blood cells; details: 2 mM; for Fixed Adducts (%) / Unfixed Adduct (%): 6 biological replicates; for Partitioning Ratio (%): fixed relative to unfixed adducts
Protocol: RBC partitioning studies were conducted both for SS RBCs following sickling studies above, or as separate independent studies with non-sickle blood. Briefly, aliquots of blood samples, which had been incubated with test molecules, were lysed either in deionized water (un-fixed), or in water containing 50 mM sodium borohydride (fixed). Samples were subjected to cation exchange HPLC analyses, as described above. Modified […] (Hb adducts) was determined as a proportion of total Hb in each sample, and partitioning ratio was determined as the relative fraction of Hb modification of fixed samples compared to corresponding non-fixed samples. The partitioning ratio is the relative fraction of Hb that was modified intracellularly by molecules that permeated the RBC membrane, as compared to unfixed adducts which reflect Hb binding without RBC membrane permeation.
Target sequence in this assay (P69905 2-142 limits assumed): as the sequence (P69905 2-142) above
Target sequence in this assay (P68871 2-147 partner limits assumed): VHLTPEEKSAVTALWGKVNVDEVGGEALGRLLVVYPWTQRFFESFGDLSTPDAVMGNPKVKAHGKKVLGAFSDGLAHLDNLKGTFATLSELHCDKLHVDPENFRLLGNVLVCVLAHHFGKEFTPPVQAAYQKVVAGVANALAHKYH

[3] = Single-dose oral pharmacokinetics in rats; format: in vivo, Sprague Dawley rats; details: Sprague Dawley, rat; single oral dose 100 mg/kg, male rats, whole blood
Protocol: Single doses of each compound were administered as oral suspensions by gavage in 0.5% carboxy methylcellulose at 100 mg/kg. Whole blood levels were collected for at least 72 hours after dose administration. Bioanalyses were performed with liquid chromatography-tandem mass spectrometry […].
Single-dose pharmacokinetics (PK) in male Sprague Dawley (SD) rats (n=4) were assessed for each compound, and the maximum or peak whole blood concentration and area under the curve are shown in Table 5.

[4] = molecular target: T1, Hb; assay: Oxygen equilibrium curve (OEC) studies with normal whole blood; format: cell-based; design: Hemoglobin modification, studies using non-sickling AA blood; from tissue; host or cells: non-sickling (AA) human blood, red blood cells; details: normal whole blood, 0.5, 1, 2 mM
Protocol: Oxygen equilibrium curve (OEC) studies to determine the effect of the compounds on Hb affinity for oxygen were conducted following standard procedure. Whole blood (30% hematocrit) was incubated in the absence or presence of compounds (0.5 mM, 1.0 mM and 2.0 mM) solubilized in DMSO. […] After equilibration, the sample was removed via syringe and aspirated into an ABL 700 series table top automated blood gas analyzer (Radiometer America, Inc., Westlake, OH) to determine total hemoglobin (tHb), hematocrit (Hct), pH, pCO2, partial pressure of oxygen (pO2), and the Hb-O2 saturation (sO2) values. The measured values of pO2 and sO2 at each oxygen saturation level were then subjected to nonlinear regression analysis using the software Scientist (Micromath, Salt Lake City UT) with the following equation: […]
Aromatic aldehydes are known to prevent hypoxia-induced Hb S polymerization by increasing the Hb affinity for oxygen. We therefore tested the PP compounds in a dose-dependent manner (0.5, 1, 2 mM) for their effect on Hb oxygen binding property. […] These findings confirmed that the potent in vitro activity previously seen in TD7 was at least conserved in the novel PP compounds.
Target sequence in this assay (P69905 2-142 limits assumed): as the sequence (P69905 2-142) above
Target sequence in this assay (P68871 2-147 partner limits assumed): as the sequence (P68871 2-147 partner limits assumed) above

[5] = molecular target: T2, intracellular Hb (Mus musculus, UniProt P01942); assay: In vivo modification of intracellular Hb in wild-type mice; design: species or system C57BL/6 mice; details: IP 150 mg/kg, 30% PEG300, 6 h
T2 construct: from tissue; host or cells: blood (red cell lysates) of dosed C57BL/6 mice
T2 sequence (P01942 2-142 limits assumed): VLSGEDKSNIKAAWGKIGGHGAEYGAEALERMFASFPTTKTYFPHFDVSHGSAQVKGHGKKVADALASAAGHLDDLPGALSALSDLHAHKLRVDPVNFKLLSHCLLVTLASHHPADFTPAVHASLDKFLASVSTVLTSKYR
T2 sequence (P02088 2-147 partner limits assumed): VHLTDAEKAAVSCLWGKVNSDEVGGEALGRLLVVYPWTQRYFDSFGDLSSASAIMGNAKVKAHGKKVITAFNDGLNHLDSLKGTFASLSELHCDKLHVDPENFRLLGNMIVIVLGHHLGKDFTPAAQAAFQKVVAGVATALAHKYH
Protocol: We tested in vivo pharmacologic (pharmacodynamics) effects of select PP compounds in C57BL/6 mice. The animals were treated with a single intraperitoneal (IP) (150 mg/kg body weight) dose of PP6, PP10, PP14, and TD7, which were formulated with 30% PEG300. Blood samples were obtained prior to treatment (0) and 1, 3 and 6 h post-treatment, via submandibular bleeding, and subjected to hemolysis using standard methods. Clarified lysates, free of cell debris and red blood cell ghosts were analyzed by cation-exchange HPLC to determine the levels of drug-modified hemoglobin (adducts); and to conduct oxygen equilibrium studies to determine degrees of shift in p50 values using methodologies described earlier for in vitro studies on human samples. In a subsequent follow-up experiment, a new excipient obtained from Catalent Pharma Solutions was also used to formulate PP14 and used for a single intraperitoneal (IP) and oral (150 mg/kg body weight) dose. Blood samples were obtained prior to treatment (0) and 1, 3 or 5 h post-treatment, via submandibular bleeding, and used to determine the levels of drug-modified hemoglobin (adducts); and to conduct oxygen equilibrium studies to determine degrees of shift in p50 values as described above.

Structure (SMILES) | Hb Modification (%) [1] | Fixed Adducts (%) [2] | Unfixed Adduct (%) [2] | Partitioning Ratio (%) [2] | AUC(0-inf) [3] | Cmax [3] | half-life [3] | effect on Hb oxygen binding property (OEC) [4] | modified Hb [5]
O=Cc1c(O)cccc1OCc1ccncc1 [Comp 3, 2-hydroxy-6-(pyridin-4-ylmethoxy)benzaldehyde] | 74.4 ± 10.6% | 60.1 ± 3.0% | 60.0 ± 3.3% | 100.1 ± 0.9% |  |  |  |  | 
O=Cc1c(O)cccc1OCc1cncc(F)c1 [Comp 4, 2-((5-fluoropyridin-3-yl)methoxy)-6-hydroxybenzaldehyde] | 92.9 ± 9.8% | 85.9 ± 7.1% | 88.8 ± 6.2% | 96.9 ± 5.73% | 831000 ng·h/mL and 3360 µM·h | 59800 ng/mL and 242 µM | 5.9 h |  | 
O=Cc1c(O)cccc1OCc1cccnc1F [Comp 6, 2-((2-fluoropyridin-3-yl)methoxy)-6-hydroxybenzaldehyde] | 73.8 ± 15.4% | 67.3 ± 12.1% | 67.1 ± 10.3% | 100.0 ± 2.8% | 180000 ng·h/mL and 728 µM·h | 12100 ng/mL and 49 µM | 8.2 h |  | 
O=Cc1c(O)cccc1OCc1cccnc1Cl [Comp 7, 2-((2-chloropyridin-3-yl)methoxy)-6-hydroxybenzaldehyde] | 73.91 ± 9.8% | 59.6 ± 5.7% | 60.2 ± 5.7% | 99.0 ± 3.1% |  |  |  |  | 
O=Cc1c(O)cccc1OCc1ncccc1Cl [Comp 8, 2-((3-chloropyridin-2-yl)methoxy)-6-hydroxybenzaldehyde] | 100.0 ± 0.0% | 85.6 ± 2.5% | 84.8 ± 7.5% | 101.3 ± 6.3% | 269000 ng·h/mL and 1020 µM·h | 20000 ng/mL and 76 µM | 9.5 h |  | 
O=Cc1c(O)cccc1OCc1cncnc1 [Comp 10, 2-hydroxy-6-(pyrimidin-5-ylmethoxy)benzaldehyde] | 100.0 ± 0.0% | 94.8 ± 2.8% | 96.3 ± 3.0% | 98.5 ± 2.7% | 693000 ng·h/mL and 3010 µM·h | 36200 ng/mL and 157 µM | 4.7 h |  | 
O=Cc1c(O)cccc1OCc1ncccn1 [Comp 11, 2-hydroxy-6-(pyrimidin-2-ylmethoxy)benzaldehyde] | 98.1 ± 3.2% | 88.2 ± 2.1% | 87.7 ± 4.3% | 100.7 ± 3.0% |  |  |  |  | 
COC(=O)c1ccc(COc2ccc(OC)cc2C=O)nc1 [PP1, Methyl 6-((2-formyl-4-methoxyphenoxy)methyl)nicotinate] |  |  |  |  |  |  |  | minimal effect | 
COC(=O)c1ccnc(COc2ccc(OC)cc2C=O)c1 [PP4] |  |  |  |  |  |  |  | minimal effect | 
COC(=O)c1ccnc(COc2cccc(O)c2C=O)c1 [PP7, Methyl 2-((2-formyl-3-hydroxyphenoxy)methyl)isonicotinate] |  |  |  |  |  |  |  | most significant activities | 
COC(=O)c1cccc(COc2cccc(O)c2C=O)n1 [PP10, Methyl 6-((2-formyl-3-hydroxyphenoxy)methyl)picolinate] |  |  |  |  |  |  |  |  | 9.6±1.9%
COC(=O)c1cncc(COc2ccc(OC)cc2C=O)c1 [PP12, Methyl 5-((2-formyl-4-methoxyphenoxy)methyl)nicotinate] |  |  |  |  |  |  |  | most significant activities | 
